# Assay results: US8399514B2, “Treatment for multiple sclerosis” (Biogen Idec MA Inc., priority 2007, dated 2013)
# Columns and labels:
# Nrf2 [1] = assay: Western blot of Nrf2 and NQO1 in DLD1 cells treated with DMF or MMF; type: cell-based, human; conditions: DLD1 cells in culture; 5, 15, or 50 μM; 16 hours
# Protocol: Human colon carcinoma DLD1 cells were treated with DMF or MMF at indicated concentrations (5, 15, or 50 μM) for 16 hours, rinsed with PBS, and harvested into reducing SDS sample buffer. The lysates were subjected to SDS PAGE and the separated proteins were electrophoretically transferred onto nitrocellulose membranes for Western blot analysis. To detect Nrf2 and NQO1, the membranes were incubated with the respective primary antibodies overnight at 4° C., washed, and incubated with peroxidase-conjugated secondary antibodies followed by the chemiluminescent peroxidase substrate. Detection of the target protein band luminescence and image acquisition were done using CCD-equipped imaging station Kodak2000R.
# Nrf2 [2] = assay: Nrf2 immunohistochemistry of spinal cord tissues in MOG 35-55 induced EAE; type: in vivo; conditions: EAE mice, oral gavage twice a day from day 3 p.i., DMF 5 or 15 mg/kg, MMF 15 mg/kg
# Protocol: For induction of EAE, mice received s.c. injections in the flanks and tail base of 50 μg MOG 35-55 peptide in PBS emulsified in an equal volume of complete Freund's adjuvant (CFA) containing Mycobacterium tuberculosis H37RA (Difco, Detroit Mich., USA) at a final concentration of 0.5 mg/ml. Two injections of pertussis toxin (List Biological Laboratories Inc., California, USA; […] i.p) were given on days 0 and 2.
# DMF and MMF was diluted in 200 μl 0.08% Methocel/H2O as vehicle and administered by oral gavage starting from day 3 post immunization (p.i) until termination. Each treatment group consisted of 8 animals: vehicle alone as a negative control, 5 mg/kg body weight DMF twice a day, 15 mg/kg body weight DMF twice a day, 15 mg/kg body weight MMF twice a day. The compounds were obtained via Fumapharm AG. Oral gavage was used to ensure exact dosing and to avoid compound degradation.
# Spinal cord tissues were fixed in 4% paraformaldehyde and embedded in paraffin. […]
# Immunohistochemistry was performed using the Dako autostainer as follows. […] The rabbit anti Nrf2 antibody C-20 (sc-722, Santa Cruz Biotechnology) was added at a 1:250 dilution in Dako Diluent with Background Reducing Components (Dako # S3022) C-20 antibody was detected using the Envision anti rabbit labeled polymer-HRP (Dako #K4003) and DAB (Vector Labs #SK-4100) was used as the chromogenic substrate. […]
# Nrf2 [3] = assay: RNAi (siRNA Nrf2/Keap1) experiment in DLD1 cells stimulated with DMF, Western blot of Nrf2 and NQO1; type: cell-based, human; conditions: 30 μM DMF for 40 hours
# Protocol: DLD1 cells were grown in MEM supplemented with 10% fetal bovine serum. The cells were transfected with the indicated siRNA's using the Lipofectamine reagent (Invitrogen) according to the manufacturer's instructions and 30 hrs later stimulated with 30 μM DMF for 40 hours. The cells were harvested and processed for Western blotting analysis of Nrf2 and NQO1 levels as described in Example 1. Sources and the identity of reagents used in Examples 1 and 2 are specified Table 3 below: […]
SMILES,"activation of Nrf2 (Nrf2 and NQO1 protein levels, Western blot, FIG. 1) (Nrf2 [1])","activation of Nrf2 in vivo (Nrf2 immunostaining, morphometric analysis, FIGS. 3 and 4) (Nrf2 [2])","DMF-induced upregulation of NQO1, dependence on Nrf2 (FIG. 2) (Nrf2 [3]; DLD1 cells transfected with Nrf2 or Keap1 siRNA)",Nrf2 agonism: cellular accumulation of Nrf2 and Nrf2 target gene expression (FIG. 2) (Nrf2 [3]; DLD1 cells)
COC(=O)/C=C/C(=O)O [MMF],potent activators of Nrf2,activation of Nrf2 in vivo,–,–
COC(=O)/C=C/C(=O)OC [DMF],potent activators of Nrf2,activation of Nrf2 in vivo,upregulation of NQO1 requires Nrf2,acts as an Nrf2 agonist
